# Assay: Drug absorption in human assessed as human intestinal absorption rate
# Type: ADME, tissue-based, Intestine
row,Compound,log10(%HIA +10)
1,CO[C@H]1C[C@H](O[C@H]2CC[C@]3(C=O)[C@H]4CC[C@]5(C)[C@@H](C6=CC(=O)OC6)CC[C@]5(O)[C@@H]4CC[C@]3(O)C2)O[C@H](C)[C@H]1O [CYMARIN],1.756
2,CC(CCc1ccccc1)NCC(O)c1ccc(O)c(C(N)=O)c1 (centres undefined) [LABETALOL],2.021
3,CC(C)(C)NCC(O)c1cc(O)cc(O)c1 (centres undefined) [TERBUTALINE],1.857
4,CC(=O)Oc1ccccc1C(=O)O [ASPIRIN],2.041
5,CC[C@H](C)C(=O)O[C@H]1C[C@@H](C)C=C2C=C[C@H](C)[C@H](CC[C@@H]3C[C@@H](O)CC(=O)O3)[C@H]21 [LOVASTATIN],1.608
6,NC(CO)C(=O)NNCc1ccc(O)c(O)c1O (centres undefined) [BENSERAZIDE],1.903
7,NC[C@@H]1O[C@H](O[C@H]2[C@@H](O)[C@H](O[C@@H]3[C@@H](O)[C@H](N)C[C@H](N)[C@H]3O[C@H]3O[C@H](CN)[C@@H](O)[C@H](O)[C@H]3N)O[C@@H]2CO)[C@H](N)[C@@H](O)[C@@H]1O [FRAMYCETIN],1.041
8,Cc1ccccc1N1C(=O)c2cc(S(N)(=O)=O)c(Cl)cc2NC1C (centres undefined) [METOLAZONE],1.863
9,CCCc1cc(=O)[nH]c(=S)[nH]1 [PROPYLTHIOURACIL],1.929
10,CC(NC(C)(C)C)C(=O)c1cccc(Cl)c1 (centres undefined) [BUPROPION],1.987
11,CO/N=C(\C(=O)N[C@@H]1C(=O)N2C(C(=O)O)=C(CSc3nc(C)c(CC(=O)O)s3)CS[C@H]12)c1csc(N)n1 [CEFODIZIME],1
12,Nc1ccn([C@@H]2CS[C@H](CO)O2)c(=O)n1 [LAMIVUDINE],1.987
13,N[C@@H](C(=O)N[C@@H]1C(=O)N2C(C(=O)O)=C(CSc3c[nH]nn3)CS[C@H]12)c1ccc(O)cc1 [CEFATRIZINE],1.934
14,CCN1CCCC1CNC(=O)c1cc(S(=O)(=O)CC)ccc1OC (centres undefined) [SULTOPRIDE],1.996
15,CC(C)NCC(O)COc1cccc2ccccc12 (centres undefined) [PROPRANOLOL],2.037
16,O=C(O)CN(CCN(CC(=O)O)CC(=O)O)CC(=O)O [EDETIC ACID],1.176
17,CCC[C@@H]1C[C@@H](C(=O)N[C@@H]([C@H]2O[C@H](SC)[C@H](O)[C@@H](O)[C@H]2O)[C@@H](C)O)N(C)C1 [LINCOMYCIN],1.574
18,Cc1cc(=O)n(-c2ccccc2)n1C [ANTIPYRINE],2.041
19,GENTAMICIN,1
20,NC(=O)OCC(COC(N)=O)c1ccccc1 [FELBAMATE],2
21,CC(C)(C)NCC(O)c1ccc(O)c(CO)n1 (centres undefined) [PIRBUTEROL],1.845
22,CC(=O)CC(c1ccccc1)c1c(O)c2ccccc2oc1=O (centres undefined) [WARFARIN],2.033
23,CC(C)(C)NCC(O)COc1cccc2c1CC(O)C(O)C2 (centres undefined) [NADOLOL],1.613
24,NCCC(O)(P(=O)(O)O)P(=O)(O)O [PAMIDRONIC ACID],1.176
25,CCN[C@@H]1C[C@H](N)[C@@H](O[C@H]2OC(CN)=CC[C@H]2N)[C@H](O)[C@H]1O[C@H]1OC[C@](C)(O)[C@H](NC)[C@H]1O [NETILMICIN],1

row,Compound,log10(%HIA +10)
1,O=C1Cc2cc(CCN3CCN(c4nsc5ccccc45)CC3)c(Cl)cc2N1 [ZIPRASIDONE],1.845
2,Nc1nc(O)c2ncn(COC(CO)CO)c2n1 [GANCICLOVIR],1.134
3,CCCCNC(=O)NS(=O)(=O)c1ccc(C)cc1 [TOLBUTAMIDE],1.978
4,NC[C@H]1O[C@H](O[C@H]2[C@H](O)[C@@H](O[C@H]3O[C@H](CO)[C@@H](O)[C@H](N)[C@H]3O)[C@H](N)C[C@@H]2N)[C@H](N)C[C@@H]1O [TOBRAMYCIN],1
5,C=CCc1ccccc1OCC(O)CNC(C)C (centres undefined) [ALPRENOLOL],2.016
6,O=C(O)P(=O)(O)O [FOSCARNET],1.431
7,CNC(=C[N+](=O)[O-])NCCSCc1ccc(CN(C)C)o1 [RANITIDINE],1.798
8,Nc1ccn([C@H]2CC[C@@H](CO)O2)c(=O)n1 [ZALCITABINE],1.978
9,CCN(C)C(=O)Oc1cccc([C@H](C)N(C)C)c1 [RIVASTIGMINE],2.041
10,CN(Cc1cc(Br)cc(Br)c1N)C1CCCCC1 [BROMHEXINE],1.903
11,N=C(N)N/N=C/c1c(Cl)cccc1Cl [GUANABENZ],1.954
12,CC(C)NCC(O)c1cc(O)cc(O)c1 (centres undefined) [METAPROTERENOL],1.732
13,CO/N=C(\C(=O)N[C@@H]1C(=O)N2C(C(=O)O)=C(CSc3nc(=O)c(=O)[nH]n3C)CS[C@H]12)c1csc(N)n1 [CEFTRIAXONE],1.041
14,IVERMECTIN,1.845
15,CC(C)NCC(O)COc1ccc(CCNC(=O)NC(C)C)cc1 (centres undefined) [PAFENOLOL],1.591
16,O=C(N[C@H](CO)[C@H](O)c1ccc([N+](=O)[O-])cc1)C(Cl)Cl [CHLORAMPHENICOL],2
17,CC(C)NCC(O)c1ccc(NS(C)(=O)=O)cc1 (centres undefined) [SOTALOL],2.021
18,Cc1cc(C(=O)NNCc2ccccc2)no1 [ISOCARBOXAZID],1.903
19,C[C@H](CS)C(=O)N1CCC[C@H]1C(=O)O [CAPTOPRIL],1.892
20,O=C(O)Cc1ccccc1Nc1c(Cl)cccc1Cl [DICLOFENAC],2.041
21,OC[C@@H](O)[C@@H](O)[C@H](O)[C@H](O)CO [MANNITOL],1.415
22,NS(=O)(=O)c1cc2c(cc1Cl)N=CNS2(=O)=O [CHLOROTHIAZIDE],1.528
23,CCN1CCCC1CNC(=O)c1cc(S(N)(=O)=O)ccc1OC (centres undefined) [SULPIRIDE],1.732
24,C[C@@H]1[C@H](O)[C@@H](C)/C=C/C=C/C=C/C=C/C=C/C=C/C=C/[C@H](O[C@@H]2O[C@H](C)[C@@H](O)[C@H](N)[C@@H]2O)C[C@@H]2O[C@](O)(C[C@@H](O)C[C@@H](O)[C@H](O)CC[C@@H](O)C[C@@H](O)CC(=O)O[C@H]1C)C[C@H](O)[C@H]2C(=O)O [AMPHOTERICIN B],1.176
